“Also recorded” adds a separate entry of the source.
Key:
[1] = molecular target: T1, PKCδ (Homo sapiens, UniProt Q05655); conditions: rottlerin 20 μM, 0.1 mM ATP, phosphatidylserine; cited from earlier work
[2] = molecular target: c-Jun N-terminal kinase 1 α1 (JNK1 α1) (Homo sapiens, UniProt P45983); conditions: 20 μM; cited from earlier work
[3] = molecular target: BKCa channel (Homo sapiens, UniProt Q12791); experiment: Outside-out single channel recordings of cultured human VSMC; type: cell-based; parameters: Human vascular smooth muscle cells (VSMC) grown in vitro express BKCa channels; endogenous in cells; host or cells: cultured human vascular smooth muscle cells (outside-out patches)
[4] = molecular target: T2, BKCa channel (mSlo) (Mus musculus, UniProt Q08460); experiment: Whole cell patch clamp of HEK293 cells stably transfected with mSlo; type: cell-based, murine
T2 construct: expressed in transfected cells
Procedure: FIGS. 4A and 4B show representative current traces from whole cell patches with 5 mM EGTA in patch pipette. […] Voltage steps are shown at the right of each tracing; note the different maximum voltage steps +200 mV (upper) vs. +120 mV (lower). […] FIG. 4C G-V curves were constructed for indicated conditions utilizing tail analysis (Xia, et al., Multiple regulatory sites in large-conductance calcium-activated potassium channels. Nature, 2002. 418(6900):880-4). Solid lines were fitted with Boltzmann function. […] FIGS. 4D and 4E show experiments studying stable mslo HEK293 cells in whole cell configuration with a pipette solution containing 5 mM EGTA (˜0 free Ca^2+).
Current in the diary plot in FIG. 5B represents maximal current in ramp protocol at +70 mV. Holding potential of ramp was −20 mV, with ramp from −30 mV to +180 mV over 500 ms. The G-V curve in FIG. 5C was generated from the tail analysis as described in FIG. 4.
Current was monitored with a ramp protocol; holding potential −60 mV, with ramp from −80 mV to +150 mV over 500 ms. […] Analysis was performed using tail analysis with normalization as previously described (Xia, et al., Multiple regulatory sites in large-conductance calcium-activated potassium channels. Nature, 2002. 418(6900):880-4). […] Identification of the BKCa channel was determined by conductance and inhibition by iberiotoxin and TEA. […] Murine femoral arterial rings were isolated and placed in a wire myograph. […] The figures shown are representative of 4 similar experiments. Error bars are standard error of the mean (SEM). Asterisk (*) indicates p<0.001.

[5] = tested on: tracheal rings; experiment: Isoproterenol-induced relaxation of tracheal rings from PBS- and OVA-sensitized animals; type: cell-based, murine; parameters: isoproterenol-induced relaxation: dose or concentration left out as unconfirmed
Procedure: The isoproterenol-induced relaxation of tracheal rings from OVA-sensitized asthmatic animals was also tested. After induction of asthma, tracheal rings were removed and mounted on the myograph. […] At the conclusion of the experiment, each tracheal ring was exposed to methacholine to ensure viability of the ring and equivalent constriction.
After induction of asthma, tracheal rings were removed and mounted on the myograph. […] The ISO-relaxation curve was shifted downward and to the right, with the maximal relaxation response reduced to only ˜25% from more than 60%.

[6] = molecular target: 3-phosphoinositide-dependent protein kinase-1 (PDK-1) (Homo sapiens, UniProt O15530); conditions: 20 μM; cited from earlier work
[7] = tested on: OVA-challenged animals; conditions: in vivo; cited from earlier work
[8] = tested on: CD4+ and CD8+ human T lymphocyte; conditions: dose-dependent; cited from earlier work
[9] = molecular target: PKA (Homo sapiens, UniProt P17612); conditions: 20 μM; cited from earlier work
[10] = molecular target: protein kinase A (PKA) (Homo sapiens, UniProt P17612); conditions: cited from earlier work
[11] = tested on: OVA-sensitized mice; experiment: OVA-asthma model, single i.v. dose before airway resistance measurement; type: in vivo
Procedure: Groups of mice received an I.P. injection of OVA/Alum complex on days 0 and 7 and on alternate days 14-22, a 20 minute aerosol challenge of either PBS or 2% (w/v) OVA in PBS, using an ultrasonic nebulizer (FIG. 22A).

[12] = tested on: HDM-exposed mice; experiment: House dust mite (HDM) sensitized asthma model
Procedure: House dust mite (HDM) is one of the most common aeroallergens and is implicated in allergy and asthma symptoms in ˜10% of the population (Johnson et al., “Continuous exposure to house dust mite elicits chronic airway inflammation and structural remodeling.” Am J Respir Crit Care Med 169:378-385 (2004)). Exposure to HDM extract elicits a severe and persistent eosinophilic airway inflammation. Mice were exposed to purified HDM extract (Greer Laboratories, Lenoir, N.C.) intranasally (25 μg of protein in 10 μl saline) for 5 days/week for 3 weeks as previously described (Id.). […] Changes in pressure, flow, and volume were recorded, and airway resistance was calculated from peak values after each challenge using a Buxco forced maneuvers system and restrained whole body plethysmography (rWBP; PLY3011 chamber, Buxco (BUXCO Electronics Inc., Troy, N.Y.)).

[13] = tested on: Jurkat T cells and purified human CD4+ T cells; conditions: cited from earlier work
[14] = molecular target: T3, recombinant BK (mSlo1) (Mus musculus, UniProt Q08460); experiment: Cell-free outside-out/inside-out patch single channel recordings from HEK cells; type: biochemical, murine
T3 construct: expressed in transfected cells
Procedure: Ca^2+ was maintained at 0 (virtual; actual <20 nM) through dialysis using a patch pipette.

[15] = molecular target: T1, PKCδ; conditions: cited from earlier work

Chain of BKCa channel (Q12791 whole entry): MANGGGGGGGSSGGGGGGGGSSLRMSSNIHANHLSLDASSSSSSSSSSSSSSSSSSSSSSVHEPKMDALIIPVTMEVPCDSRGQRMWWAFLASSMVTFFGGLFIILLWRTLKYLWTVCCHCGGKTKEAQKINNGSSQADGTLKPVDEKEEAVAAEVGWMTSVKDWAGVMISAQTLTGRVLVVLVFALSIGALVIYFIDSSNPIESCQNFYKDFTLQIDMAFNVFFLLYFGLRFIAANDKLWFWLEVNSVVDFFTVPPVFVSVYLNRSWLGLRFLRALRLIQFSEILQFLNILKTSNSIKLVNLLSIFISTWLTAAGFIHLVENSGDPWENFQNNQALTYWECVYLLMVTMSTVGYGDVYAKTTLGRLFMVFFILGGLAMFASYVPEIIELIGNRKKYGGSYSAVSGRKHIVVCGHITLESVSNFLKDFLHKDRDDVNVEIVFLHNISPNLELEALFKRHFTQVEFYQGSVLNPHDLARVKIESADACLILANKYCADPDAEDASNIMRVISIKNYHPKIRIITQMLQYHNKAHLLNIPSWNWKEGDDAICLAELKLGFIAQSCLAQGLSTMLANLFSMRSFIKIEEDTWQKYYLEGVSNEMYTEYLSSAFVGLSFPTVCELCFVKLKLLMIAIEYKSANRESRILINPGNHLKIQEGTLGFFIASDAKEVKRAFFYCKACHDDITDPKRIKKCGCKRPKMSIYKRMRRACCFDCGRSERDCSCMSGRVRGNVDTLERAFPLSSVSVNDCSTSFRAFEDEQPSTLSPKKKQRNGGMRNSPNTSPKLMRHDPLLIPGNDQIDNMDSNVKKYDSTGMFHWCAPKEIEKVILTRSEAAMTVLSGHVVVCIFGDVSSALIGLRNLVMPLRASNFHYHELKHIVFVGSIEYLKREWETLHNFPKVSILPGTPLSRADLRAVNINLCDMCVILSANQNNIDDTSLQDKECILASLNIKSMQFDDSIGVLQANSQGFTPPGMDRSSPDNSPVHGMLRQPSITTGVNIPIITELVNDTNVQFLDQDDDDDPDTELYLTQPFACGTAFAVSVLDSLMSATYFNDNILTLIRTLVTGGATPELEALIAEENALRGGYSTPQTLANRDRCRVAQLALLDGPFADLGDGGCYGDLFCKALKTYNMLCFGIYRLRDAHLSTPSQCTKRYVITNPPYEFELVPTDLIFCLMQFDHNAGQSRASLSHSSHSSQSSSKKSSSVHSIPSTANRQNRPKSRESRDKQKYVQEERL
T2 sequence (Q08460 whole entry): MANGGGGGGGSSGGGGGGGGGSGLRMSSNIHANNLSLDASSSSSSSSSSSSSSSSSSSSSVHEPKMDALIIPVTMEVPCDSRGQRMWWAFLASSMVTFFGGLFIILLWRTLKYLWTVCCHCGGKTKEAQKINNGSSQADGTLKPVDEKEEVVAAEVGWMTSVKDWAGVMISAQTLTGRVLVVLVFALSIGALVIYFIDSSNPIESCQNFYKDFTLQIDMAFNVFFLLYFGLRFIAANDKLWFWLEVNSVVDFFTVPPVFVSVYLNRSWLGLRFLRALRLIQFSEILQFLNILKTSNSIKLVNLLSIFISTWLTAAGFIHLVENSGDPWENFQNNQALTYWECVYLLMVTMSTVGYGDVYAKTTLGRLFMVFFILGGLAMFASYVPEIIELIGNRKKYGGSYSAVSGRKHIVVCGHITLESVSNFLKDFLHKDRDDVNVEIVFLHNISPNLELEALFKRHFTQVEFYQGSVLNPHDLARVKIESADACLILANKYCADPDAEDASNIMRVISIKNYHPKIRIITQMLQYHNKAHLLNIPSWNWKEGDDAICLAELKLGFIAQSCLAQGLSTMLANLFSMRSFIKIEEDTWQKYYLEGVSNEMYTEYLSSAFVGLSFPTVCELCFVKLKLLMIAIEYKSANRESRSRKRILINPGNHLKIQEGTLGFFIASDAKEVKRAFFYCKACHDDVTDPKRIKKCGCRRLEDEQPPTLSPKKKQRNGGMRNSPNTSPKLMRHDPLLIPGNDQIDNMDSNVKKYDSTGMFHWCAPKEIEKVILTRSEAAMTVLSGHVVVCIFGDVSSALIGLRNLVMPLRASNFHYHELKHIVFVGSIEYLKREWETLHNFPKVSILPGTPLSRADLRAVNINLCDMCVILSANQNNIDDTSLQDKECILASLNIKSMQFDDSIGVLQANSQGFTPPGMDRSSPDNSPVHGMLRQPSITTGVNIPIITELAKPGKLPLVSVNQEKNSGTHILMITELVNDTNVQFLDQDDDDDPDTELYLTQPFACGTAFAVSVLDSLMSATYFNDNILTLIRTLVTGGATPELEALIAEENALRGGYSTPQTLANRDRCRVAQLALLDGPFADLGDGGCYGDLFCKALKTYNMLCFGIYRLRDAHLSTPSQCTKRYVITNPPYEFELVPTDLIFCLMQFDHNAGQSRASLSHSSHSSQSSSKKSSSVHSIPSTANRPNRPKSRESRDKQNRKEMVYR
T3 sequence (Q08460 whole entry): as above
T1 sequence (Q05655 whole entry): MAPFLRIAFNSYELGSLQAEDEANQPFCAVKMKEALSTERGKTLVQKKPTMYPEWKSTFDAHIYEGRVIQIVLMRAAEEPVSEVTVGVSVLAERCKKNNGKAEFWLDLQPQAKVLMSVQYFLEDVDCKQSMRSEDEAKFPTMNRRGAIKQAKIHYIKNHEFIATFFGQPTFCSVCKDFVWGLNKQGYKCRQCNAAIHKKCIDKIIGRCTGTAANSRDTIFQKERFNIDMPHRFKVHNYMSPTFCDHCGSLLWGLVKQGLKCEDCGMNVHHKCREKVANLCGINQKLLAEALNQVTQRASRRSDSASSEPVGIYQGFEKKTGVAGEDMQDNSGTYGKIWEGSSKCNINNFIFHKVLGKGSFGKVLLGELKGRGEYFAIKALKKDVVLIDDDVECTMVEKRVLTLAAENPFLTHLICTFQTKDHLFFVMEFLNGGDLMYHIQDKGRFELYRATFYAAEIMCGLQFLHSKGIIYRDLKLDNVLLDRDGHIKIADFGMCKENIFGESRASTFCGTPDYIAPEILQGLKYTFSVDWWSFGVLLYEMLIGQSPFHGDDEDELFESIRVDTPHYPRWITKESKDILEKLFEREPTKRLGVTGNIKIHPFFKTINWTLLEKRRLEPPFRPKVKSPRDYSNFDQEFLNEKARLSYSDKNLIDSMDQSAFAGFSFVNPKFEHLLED
Chain of 3-phosphoinositide-dependent protein kinase-1 (PDK-1) (O15530 whole entry, species assumed): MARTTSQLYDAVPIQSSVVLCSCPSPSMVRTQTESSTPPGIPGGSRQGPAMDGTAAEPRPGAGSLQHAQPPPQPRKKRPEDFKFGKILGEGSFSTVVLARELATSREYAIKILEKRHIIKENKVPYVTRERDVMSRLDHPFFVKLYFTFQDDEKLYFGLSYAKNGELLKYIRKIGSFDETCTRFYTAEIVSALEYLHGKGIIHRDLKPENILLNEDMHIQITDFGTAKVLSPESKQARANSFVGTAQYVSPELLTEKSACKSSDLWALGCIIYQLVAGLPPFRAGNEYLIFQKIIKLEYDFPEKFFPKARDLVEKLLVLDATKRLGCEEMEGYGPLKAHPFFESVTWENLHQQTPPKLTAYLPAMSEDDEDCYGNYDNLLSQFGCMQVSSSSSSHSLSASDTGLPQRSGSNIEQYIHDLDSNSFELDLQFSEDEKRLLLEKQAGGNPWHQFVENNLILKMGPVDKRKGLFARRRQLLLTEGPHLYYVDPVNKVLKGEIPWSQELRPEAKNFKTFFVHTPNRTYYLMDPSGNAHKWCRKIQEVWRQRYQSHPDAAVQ
Chain of c-Jun N-terminal kinase 1 α1 (JNK1 α1) (P45983 1-384 isoform P45983-2, species assumed): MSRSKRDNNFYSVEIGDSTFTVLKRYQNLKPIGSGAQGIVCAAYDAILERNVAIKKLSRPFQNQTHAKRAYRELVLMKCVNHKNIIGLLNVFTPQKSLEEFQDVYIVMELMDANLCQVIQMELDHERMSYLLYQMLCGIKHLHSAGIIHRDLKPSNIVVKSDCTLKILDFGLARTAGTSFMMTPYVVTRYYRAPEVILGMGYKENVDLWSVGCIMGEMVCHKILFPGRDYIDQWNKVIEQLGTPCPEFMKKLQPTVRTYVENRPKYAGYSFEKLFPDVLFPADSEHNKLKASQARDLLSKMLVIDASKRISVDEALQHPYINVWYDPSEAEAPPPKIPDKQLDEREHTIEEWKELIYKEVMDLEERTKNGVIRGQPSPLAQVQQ

## CC(=O)c1c(O)c(C)c(O)c(Cc2c(O)c3c(c(C(=O)/C=C/c4ccccc4)c2O)OC(C)(C)C=C3)c1O [rottlerin, 5,7-dihydroxy-2,2-dimethyl-6-(2,4,6-trihydroxy-3-methyl-5-acetylbenzyl)-8-cinnamoyl-I,2-chromene]
[1]
  effect on PKCδ activity: virtually no effect
[2]
  inhibition: 51%
[3]; 0.5 μM rottlerin, outside-out patches, cultured human VSMC
  channel open probability: significant increase
[3]; rottlerin 0.5 μM local perfusion, +60 mV
  Po and open dwell time: increasing Po and open dwell time; also recorded: significantly increased
[4]; after exposure to rottlerin
  tail currents (deactivation): markedly prolonged
[4]; extracellular, non-Ca2+ dependent, reversible
  concentration at which channel activity was dramatically increased: < 100 nM
[4]; rottlerin 0.5 μM added after NS-1619, 0 Ca2+
  current after NS-1619 administration: incrementally increased current
[4]; up to 20 μM in patch pipette, 25 minutes
  effect of intracellular dialysis on channel activity: only a relatively small effect; also recorded: minimal effect
[5]; OVA-sensitized rings, acute rottlerin in the bath 2 minutes prior to ISO
  maximal relaxation response to isoproterenol: ~45%
[5]; PBS-treated (control) animals
  isoproterenol-induced relaxation: enhanced the isoproterenol-induced relaxation
[6]
  inhibition: 64%
[7]
  histamine in BAL fluid: inhibits an increase of histamine
[8]
  T lymphocyte proliferation: inhibits
[9]
  inhibition: 83%
[10]
  IC50: 30 to 100 µM
[11]; Rottlerin (5 μg/g) in combination with Isoproterenol (2.5 μg/g), tail vein
  β-agonist mediated relaxation of the airway: increased β-agonist mediated relaxation of the airway
[11]; single I.V. administration
  time to reduction of AHR: ≤ 5 min
[11]; single dose 5 μg/g I.V. 5 minutes before measurement, OVA-sensitized mice
  airway resistance (RL): significant decrease in their RL; also recorded: significantly reduced airway resistance
[12]; 5 μg/g intraperitoneal every other day
  adverse effect, mortality, morbidity: no significant adverse effect
[12]; HDM-exposed animals
  cellular infiltrate in the peribronchial and perivascular regions: significant reduction
[12]; HDM-sensitized mice, methacholine 25-50 mg/ml
  airway resistance: marked decrease in their airway resistance
[12]; PBS-sensitized animals
  airway resistance: no effect
[13]
  PMA-induced phosphorylation of Erk-1 and Erk-2: blocked
[14]; 0.5 μM rottlerin, outside-out patches from HEK cells, absence of ATP
  channel open probability: significant increase
[14]; rottlerin 0.5 μM bath application, outside-out patch, +30 mV, n=18
  experiments in which activation was found: 100%
[14]; rottlerin 0.5 μM, outside-out, 0 Ca2+
  channel conductance: does not significantly change
[15]
  IC50: 3 to 6 µM

— patent publication US20120184517A1, “TREATMENT OF DISEASES WITH ALTERED SMOOTH MUSCLE CONTRACTILITY” (priority 2009, published 2012)
